In US9758505B2, “3-(indol-3-yl)-pyridine derivatives, pharmaceutical compositions and methods for use” (ITEOS THERAPEUTICS, priority 2014, dated 2017):

Legend:
[1] = molecular target: T1, human TDO2 (Homo sapiens (Human), UniProt P48775); experiment: Assay for TDO2 enzymatic activity determination; assay type: biochemical; settings: human recombinant TDO2, L-Trp 1 mM, kynurenine absorbance at 480 nm
Description: The compounds of formula I inhibit the enzymatic activity of human TDO2.
To measure the TDO2 activity, the procedure described in Dolusic et al. J. Med. Chem.; 2011, 54, […] was adapted: the reaction mixture contained (final concentrations) potassium phosphate buffer (50 mM, pH 7.5), ascorbic acid (0.25 M), methylene blue (0.125 μM), catalase (40 units/mL, from bovine liver, Sigma), and human recombinant TDO2 enzyme (prepared as described in Dolusic et al. J. Med. Chem.; 2011, 54, 5320-5334; 0.9 μg) without or with the compounds of the present invention at the indicated concentrations (total volume 112.5 μL). The reaction was initiated by the addition of 37.5 μL of L-Trp (final concentration 1 mM) at room temperature. The reaction was conducted at room temperature during one hour and stopped by the addition of 30 μL of 30% (w/v) trichloroacetic acid.
To convert N-formylkynurenine into kynurenine, the reaction mixture was incubated at 65° C. for 30 min. Then 150 μL of the reaction mixture was mixed with 120 μL of 2.5% (w/v) 4-(dimethylamino)-benzaldehyde in acetic acid and incubated for 5 min at room temperature. Kynurenine concentrations were determined by measuring the absorbance at 480 nm. A standard curve was made with pure kynurenine. The TDO activity was measured as described above using ten serial concentrations of the compounds of the present invention. Data were fitted using the Prism™ software (GraphPad Software, Inc.) using standard software configurations.

[2] = molecular target: T1, human TDO2; experiment: Cellular assay for TDO2 activity, hTDO2-overexpressing P815 cells; assay type: cell-based; settings: murine mastocytoma P815 cells overexpressing hTDO2, overnight incubation, kynurenine in supernatant
Description: The compounds of Formula I inhibit the activity of human TDO2 in cells.
The assay (adapted from Pilotte L et al., Proc Natl Acad Sci USA, 2012, 109(7), 2497-502) was performed in 96-well flat bottom plates seeded with murine mastocytoma P815 cells overexpressing hTDO2 (prepared as described in Pilotte et al., PNAS, 2012, 109(7), 2497-2502), at a concentration of 5×10^4 cells/well in a final volume of 200 μL. To determine TDO or IDO activity, the cells were incubated overnight at 37° C. at 5% CO2 in IMDM (Invitrogen) supplemented with 2% FBS and 2% penicillin/streptomycin in the presence of the compounds of the present invention, at different concentrations. The cells may be obtained from the American Type Cuylture Collecion [ATCC® TIB-64™ or commercially, e.g., from Sigma-Aldrich or Life Technologies.]
(§1) The plates were then centrifuged 5 min at 1000 rpm, and 100 μL of the supernatant were collected in a conical plate, 30 uL of TCA 30% were added and a further centrifugated at 3000×g for 10 minutes. 100 μL of the supernatant were collected in a flat bottomed plate and 100 μL of 2% (w/v) 4-(dimethylamino)-benzaldehyde in acetic acid and incubated for 5 min at room temperature. Kynurenine concentrations were determined by measuring the absorbance at 480 nm. A standard curve was made with pure kynurenine. The TDO activity was measured as described above using ten serial concentrations of the compounds of the present invention. Data were fitted using the Prism™ software (GraphPad Software, Inc.) using standard software configurations.

[3] = molecular target: T1, human TDO2; experiment: Cellular assay for TDO2 activity, A172 cells naturally expressing hTDO2; assay type: cell-based; settings: human glioblastoma A172 cells, overnight incubation, kynurenine in supernatant
Description: A172 is a cell line derived from human brain glioblastoma cells.
To determine TDO, the cells were incubated overnight at 37° C. at 5% CO2 in IMDM (Invitrogen) supplemented with 2% FBS and 2% penicillin/streptomycin in the presence of the compounds of the present invention, at different concentrations.
as §1

[4] = molecular target: TDO2 (Mus musculus (Mouse), UniProt P48776); experiment: Pharmacodynamic assay for TDO2 in vivo activity: increase of blood tryptophan levels in mice; settings: female BALB/c mice, 2 h
Excerpt: The compounds of the present invention increase the amount of Tryptophan in mouse blood.

Sequence of TDO2 (P48776 whole entry): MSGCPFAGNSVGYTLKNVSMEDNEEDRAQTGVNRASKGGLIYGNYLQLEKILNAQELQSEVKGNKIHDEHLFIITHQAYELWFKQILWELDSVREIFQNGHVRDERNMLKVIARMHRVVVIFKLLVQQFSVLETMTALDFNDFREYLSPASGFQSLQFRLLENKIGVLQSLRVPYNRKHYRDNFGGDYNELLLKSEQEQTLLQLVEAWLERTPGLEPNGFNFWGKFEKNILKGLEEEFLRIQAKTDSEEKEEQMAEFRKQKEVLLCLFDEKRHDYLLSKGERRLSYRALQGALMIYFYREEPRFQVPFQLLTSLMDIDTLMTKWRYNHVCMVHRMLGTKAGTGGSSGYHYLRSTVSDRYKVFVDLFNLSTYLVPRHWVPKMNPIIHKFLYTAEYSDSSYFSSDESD
T1 sequence (P48775 whole entry): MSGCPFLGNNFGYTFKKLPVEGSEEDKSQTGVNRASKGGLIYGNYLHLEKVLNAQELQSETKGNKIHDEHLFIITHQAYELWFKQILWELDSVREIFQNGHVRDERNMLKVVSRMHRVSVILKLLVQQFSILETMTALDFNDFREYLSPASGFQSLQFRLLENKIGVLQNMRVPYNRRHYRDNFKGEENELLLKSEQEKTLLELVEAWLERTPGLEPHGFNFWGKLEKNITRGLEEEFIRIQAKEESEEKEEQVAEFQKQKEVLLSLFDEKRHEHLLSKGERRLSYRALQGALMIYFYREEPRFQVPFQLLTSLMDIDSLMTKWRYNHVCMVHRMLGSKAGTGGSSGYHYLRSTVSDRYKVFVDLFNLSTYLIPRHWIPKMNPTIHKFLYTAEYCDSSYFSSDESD

SMILES	IC50 [1] [nM]	IC50 [2] [nM]	also measured
CS(=O)(=O)NC1CCN(c2ccc(-c3c[nH]c4cc(F)ccc34)cn2)CC1 [Example 14, N-(1-(5-(6-fluoro-1H-indol-3-yl)pyridin-2-yl)piperidin-4-yl)methanesulfonamide]	970	610	IC50 [3]: 1800 nM; Tryptophan concentration in plasma (average ± standard error of the mean) ([4]; 30 mg/kg oral gavage): 27976 ± 1196; increase of circulating Tryptophan compared to vehicle-treated controls ([4]; 30 mg/kg oral gavage): 33%; Tryptophan concentration in plasma (average ± standard error of the mean) ([4]; 60 mg/kg oral gavage): 33862 ± 1529; increase of circulating Tryptophan compared to vehicle-treated controls ([4]; 60 mg/kg oral gavage): 61%; Tryptophan concentration in plasma (average ± standard error of the mean) ([4]; 100 mg/kg oral gavage): 35716 ± 1663; increase of circulating Tryptophan compared to vehicle-treated controls ([4]; 100 mg/kg oral gavage): 70%
Fc1ccc2c(-c3ccc(NC4CCNCC4)nc3)c[nH]c2c1 [Example 17, 5-(6-fluoro-1H-indol-3-yl)-N-(piperidin-4-yl)pyridin-2-amine]	870	1300	
CS(=O)(=O)NCCCNc1ccc(-c2c[nH]c3cc(F)ccc23)cn1 [Example 21, N-(3-(5-(6-fluoro-1H-indol-3-yl)pyridin-2-ylamino)propyl)methanesulfonamide]	620	350	
CS(=O)(=O)CCCNc1ccc(-c2c[nH]c3cc(F)ccc23)cn1 [Example 22, 5-(6-fluoro-1H-indol-3-yl)-N-(3-(methylsulfonyl)propyl)pyridin-2-amine]	1200	400	
CN(C)CCNc1ccc(-c2c[nH]c3cc(F)ccc23)cn1 [Example 25, N^1-(5-(6-fluoro-1H-indol-3-yl)pyridin-2-yl)-N^2,N^2-dimethylethane-1,2-diamine]	540	140	
OCCNc1ccc(-c2c[nH]c3cc(F)ccc23)cn1 [Example 27, 2-(5-(6-fluoro-1H-indol-3-yl)pyridin-2-ylamino)ethanol]	490	190	
CS(=O)(=O)CCNc1ccc(-c2c[nH]c3cc(F)ccc23)cn1 [Example 28, 5-(6-fluoro-1H-indol-3-yl)-N-(2-(methylsulfonyl)ethyl)pyridin-2-amine]	1500	1000	
O=C(O)CNc1ccc(-c2c[nH]c3cc(F)ccc23)cn1 [Example 30, 2-(5-(6-fluoro-1H-indol-3-yl)pyridin-2-ylamino)acetic acid]	1600	1500	
NC(=O)CNc1ccc(-c2c[nH]c3cc(F)ccc23)cn1 [Example 31, 2-(5-(6-fluoro-1H-indol-3-yl)pyridin-2-ylamino)acetamide]	790	120	
CNc1ccc(-c2c[nH]c3cc(F)ccc23)cn1 [Example 34, 5-(6-fluoro-1H-indol-3-yl)-N-methylpyridin-2-amine]	290	240	IC50 [3]: 1600 nM
CC(=O)Nc1ccc(-c2c[nH]c3cc(F)ccc23)cn1 [Example 40, N-(5-(6-fluoro-1H-indol-3-yl)pyridin-2-yl)acetamide]	1000	150	IC50 [3]: 130 nM
Fc1ccc2c(-c3cccnc3)c[nH]c2c1 [Example 44, 6-fluoro-3-(pyridin-3-yl)-1H-indole]	850	68	IC50 [3]: 600 nM
Cc1ncccc1-c1c[nH]c2cc(F)ccc12 [Example 45, 6-fluoro-3-(2-methylpyridin-3-yl)-1H-indole]	860	220	
Cc1ccncc1-c1c[nH]c2cc(F)ccc12 [Example 46, 6-fluoro-3-(4-methylpyridin-3-yl)-1H-indole]	13000	670	
Fc1cc2[nH]cc(-c3cccnc3)c2cc1F [Example 47, 5,6-difluoro-3-(pyridin-3-yl)-1H-indole]	2800	240	
Cc1cncc(-c2c[nH]c3cc(F)ccc23)c1 [Example 48, 6-fluoro-3-(5-methylpyridin-3-yl)-1H-indole]	4500	620	
